The numbers were not newly measured in patent EP4599698A1, “PRODUCTS COMPRISING SENSORY AGENTS” (Nicoventures Trading Limited, priority 2024, dated 2025), which cites them from elsewhere.

The target in series [1] is transient receptor potential vanilloid 1/TRPV1 (Homo sapiens, UniProt Q8NER1).
Series [2] has as its target TRP ankyrin 1/TRPA1 (Homo sapiens, UniProt O75762).
For series [3], the target named is TRP melastatin 8/TRPM8 (Homo sapiens, UniProt Q7Z2W7).
Series [4] relates to TRPA1-containing neurons.
For series [5] the following is noted: when isolated; converts via isomerization into trans-bixin (β-bixin).

Structures are written as SMILES.

Sequence of transient receptor potential vanilloid 1/TRPV1 (Q8NER1 whole entry): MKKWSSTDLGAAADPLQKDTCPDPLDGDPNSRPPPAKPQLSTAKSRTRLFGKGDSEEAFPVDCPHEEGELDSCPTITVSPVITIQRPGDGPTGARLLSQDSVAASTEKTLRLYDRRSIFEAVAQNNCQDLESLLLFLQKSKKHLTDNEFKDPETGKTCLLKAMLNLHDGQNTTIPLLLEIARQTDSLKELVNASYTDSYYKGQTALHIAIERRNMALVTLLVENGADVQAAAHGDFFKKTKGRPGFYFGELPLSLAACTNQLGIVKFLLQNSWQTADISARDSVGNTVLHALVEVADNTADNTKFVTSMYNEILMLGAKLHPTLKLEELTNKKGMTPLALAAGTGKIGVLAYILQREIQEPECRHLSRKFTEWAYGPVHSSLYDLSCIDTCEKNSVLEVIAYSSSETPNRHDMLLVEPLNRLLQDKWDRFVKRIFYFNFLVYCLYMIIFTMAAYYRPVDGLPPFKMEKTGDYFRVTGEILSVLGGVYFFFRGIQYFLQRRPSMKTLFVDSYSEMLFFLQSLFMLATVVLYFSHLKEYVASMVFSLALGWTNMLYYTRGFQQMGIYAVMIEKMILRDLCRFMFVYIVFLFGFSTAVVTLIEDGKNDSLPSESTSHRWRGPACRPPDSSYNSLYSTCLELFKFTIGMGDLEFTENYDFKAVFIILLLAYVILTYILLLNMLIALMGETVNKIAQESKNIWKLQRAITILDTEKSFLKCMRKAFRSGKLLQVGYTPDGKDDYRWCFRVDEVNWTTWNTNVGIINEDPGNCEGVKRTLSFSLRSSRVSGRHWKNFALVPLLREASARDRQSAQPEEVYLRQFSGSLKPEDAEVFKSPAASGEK
Sequence of TRP ankyrin 1/TRPA1 (O75762 whole entry): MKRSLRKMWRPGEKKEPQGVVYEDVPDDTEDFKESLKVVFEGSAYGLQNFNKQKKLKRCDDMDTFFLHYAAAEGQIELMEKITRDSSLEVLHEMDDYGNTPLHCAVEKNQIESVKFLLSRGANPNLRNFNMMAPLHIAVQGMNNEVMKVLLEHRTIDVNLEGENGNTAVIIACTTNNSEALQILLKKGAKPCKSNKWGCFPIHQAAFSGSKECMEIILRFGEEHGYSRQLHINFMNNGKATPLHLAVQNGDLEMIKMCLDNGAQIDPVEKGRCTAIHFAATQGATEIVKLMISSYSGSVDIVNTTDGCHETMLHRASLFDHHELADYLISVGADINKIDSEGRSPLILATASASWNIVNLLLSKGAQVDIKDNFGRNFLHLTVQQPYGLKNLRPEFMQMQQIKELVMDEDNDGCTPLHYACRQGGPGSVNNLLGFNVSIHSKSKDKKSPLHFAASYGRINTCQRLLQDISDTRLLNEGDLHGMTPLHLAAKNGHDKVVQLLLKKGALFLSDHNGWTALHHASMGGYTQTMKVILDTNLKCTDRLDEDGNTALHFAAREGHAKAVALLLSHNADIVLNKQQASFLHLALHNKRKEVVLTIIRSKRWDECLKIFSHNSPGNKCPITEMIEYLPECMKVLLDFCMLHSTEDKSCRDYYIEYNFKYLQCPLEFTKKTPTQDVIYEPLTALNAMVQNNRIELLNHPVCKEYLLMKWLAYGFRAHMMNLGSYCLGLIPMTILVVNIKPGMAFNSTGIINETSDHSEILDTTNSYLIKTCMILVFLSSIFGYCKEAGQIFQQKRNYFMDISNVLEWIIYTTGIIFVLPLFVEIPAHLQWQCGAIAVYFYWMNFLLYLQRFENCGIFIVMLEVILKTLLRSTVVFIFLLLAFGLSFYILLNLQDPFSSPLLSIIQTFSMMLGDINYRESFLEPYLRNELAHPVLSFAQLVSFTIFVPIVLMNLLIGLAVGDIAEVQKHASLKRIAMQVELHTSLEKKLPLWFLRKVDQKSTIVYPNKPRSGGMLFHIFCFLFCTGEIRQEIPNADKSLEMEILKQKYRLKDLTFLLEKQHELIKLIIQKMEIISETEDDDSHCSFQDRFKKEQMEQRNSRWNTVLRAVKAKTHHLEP
Sequence of TRP melastatin 8/TRPM8 (Q7Z2W7 whole entry): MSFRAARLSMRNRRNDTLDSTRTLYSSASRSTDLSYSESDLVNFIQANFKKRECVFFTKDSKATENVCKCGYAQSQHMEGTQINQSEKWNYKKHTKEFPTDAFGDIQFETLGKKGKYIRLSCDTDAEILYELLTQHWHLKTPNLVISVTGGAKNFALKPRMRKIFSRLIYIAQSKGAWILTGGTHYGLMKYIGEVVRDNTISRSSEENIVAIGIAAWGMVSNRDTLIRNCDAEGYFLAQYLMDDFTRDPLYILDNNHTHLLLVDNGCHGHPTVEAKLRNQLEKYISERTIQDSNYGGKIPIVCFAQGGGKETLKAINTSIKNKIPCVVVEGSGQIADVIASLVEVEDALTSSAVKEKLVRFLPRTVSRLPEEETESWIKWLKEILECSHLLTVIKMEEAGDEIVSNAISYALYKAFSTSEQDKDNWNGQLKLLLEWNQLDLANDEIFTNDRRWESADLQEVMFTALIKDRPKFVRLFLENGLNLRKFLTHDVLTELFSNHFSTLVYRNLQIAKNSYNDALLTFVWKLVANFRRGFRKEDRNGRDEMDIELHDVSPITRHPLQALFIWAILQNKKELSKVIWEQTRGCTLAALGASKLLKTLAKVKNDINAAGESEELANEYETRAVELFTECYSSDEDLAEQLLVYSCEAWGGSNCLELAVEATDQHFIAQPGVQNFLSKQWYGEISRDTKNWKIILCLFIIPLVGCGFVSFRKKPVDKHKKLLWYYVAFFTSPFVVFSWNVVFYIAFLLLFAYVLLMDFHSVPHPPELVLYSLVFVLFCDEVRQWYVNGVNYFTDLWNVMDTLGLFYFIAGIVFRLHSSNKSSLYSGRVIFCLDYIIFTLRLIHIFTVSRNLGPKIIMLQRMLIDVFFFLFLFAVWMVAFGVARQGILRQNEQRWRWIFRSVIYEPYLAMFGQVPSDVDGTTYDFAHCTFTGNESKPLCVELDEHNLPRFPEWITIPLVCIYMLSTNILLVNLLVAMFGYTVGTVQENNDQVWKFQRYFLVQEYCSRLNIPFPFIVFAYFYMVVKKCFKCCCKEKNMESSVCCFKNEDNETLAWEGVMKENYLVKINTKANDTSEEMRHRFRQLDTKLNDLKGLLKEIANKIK

`CC(/C=C/C=C(C)/C=C/C(=O)O)=C\C=C\C=C(C)\C=C\C=C(C)\C=C\C(=O)O` (stereo in doubt) [norbixin, (2E,4E,6E,8E,10E,12E,14E,16E,18E)-4,8,13,17-tetramethylicosa-2,4,6,8,10,12,14,16,18-nonaenedioic acid]: the solubility in water result is reported as “water soluble”.

For `C/C=C/C=C/C=C\CC/C=C/C(=O)NCC(C)(C)O` [Hydroxyl-α-sanshool], in series [1], the “agonist activity at TRPV1” value is “agonist”. Besides, in series [2], the “agonist activity at TRPA1” value is recorded as “agonist”.

In the case of `C=CC(C)(O)CCC=C(C)C` (stereo not shown) [Linalool], the “agonist activity at TRPM8” value in series [3] is listed as “weak agonist”. The “stimulation of TRPA1-containing neurons” value in series [4] is listed as “shown to stimulate”.

With `COC(=O)/C=C/C(C)=C\C=C\C(C)=C\C=C\C=C(C)\C=C\C=C(C)\C=C\C(=O)O` [bixin, (2E,4E,6E,8E,10E,12E,14E,16Z,18E)-20-methoxy-4,8,13,17-tetramethyl-20-oxoicosa-2,4,6,8,10,12,14,16,18-nonaenoic acid], the solubility in water entry is reported as “insoluble in water”. In addition, in series [5], the chemical stability entry is listed as “chemically unstable when isolated”.
